Reference: patent US9879006B2, “Azaindole acetic acid derivatives and their use as prostaglandin D2 receptor modulators” (IDORSIA PHARMACEUTICALS LTD, priority 2014, dated 2018)

What was measured:
[1] = tested on: primary cultured rat hepatocytes; experiment: In vitro cytotoxicity in primary cultured rat hepatocytes; assay type: cell-based; settings: 24 h treatment, cell morphology and LDH leakage, highest test concentration 300 μM; for LCC (lowest cytotoxic concentration): 300s = only slight cytotoxicity at 300 μM
From the text: In Vitro Cytotoxicity in Primary Cultured Rat Hepatocytes
Adult male Wistar rats were narcotized with sodium pentobarbital and hepatocytes were isolated according to a standard procedure, i.e. by in situ perfusion of the liver with a collagenase solution. The viability of the purified hepatocytes, checked by the trypan blue dye exclusion method was greater than 85%. The isolated hepatocytes were resuspended in standard Williams Medium E, without phenol red, supplemented (WME supp.) with transferrin (100 μg/ml), triiodothyronine (10 μg/ml), gentamicin (50 μg/ml), hydrocortison hemisuccinate (13.36 μg/ml), glucagon (5 μg/ml), HEPES (10 mM), inosin (10 μg/ml), insulin (10 μg/ml), streptomycin (100 μg/ml) and penicillin (100 U/ml) and 10% fetal bovine serum (FBS). The cells were plated in collagen-coated 24-well plates at an initial density of 2×10^5 cells/well. After 4 h for attachment to the culture-plates, the medium was aspirated and replaced by fresh WME supp. without FBS containing the test compounds and incubated for 24 h at 37° C. in a […] and 5% CO2 atmosphere. For each experiment, i.e., with each batch of hepatocytes, treatments with the test compounds were done in quadriplicate. Quadriplicate controls (treatment with the vehicle only) were also present on each culture plate.
Stock solutions of the test compounds were prepared in DMSO a few hours before treatment start. Appropriate dilutions of these stock solutions were added to the culture media just prior to the treatment in order to give final concentrations of 0, 3, 10, 30, 100 and 300 μM. The final concentration of the vehicle DMSO was 1% (v/v).
The morphology of the hepatocyte monolayers was monitored by light microscopy after 24 hours of exposure to the test compounds. Treatment related effects are described according to the following grading: • 0 No morphological alterations observed upon treatment when compared to the control cultures • 1-3 Treatment resulting in any morphological changes, e.g. intracellular granulation, vacuolization or cell death. Depending on the severity, these changes were regarded as slight (1), moderate (2) or strong (3). • K Treatment resulting in 100% dead cells and/or the complete detachment of the monolayer yielding a clear cell-free dish.
After 24 h treatment of the hepatocyte cultures, aliquots of culture medium were carefully collected and used for the analysis of lactate dehydrogenase (LDH) activity by spectrophotometry using the LDH cytotoxicity detection kit from Clontech (cat No. 630117, Mountain View, Calif., USA). For each experiment, additional cultures were used for the determination of total intracellular LDH activity at treatment start. For this purpose, 4 wells of cell culture per experiment were washed with cold saline before treatment start, sonicated in fresh medium and the homogenate was analyzed for total LDH activity. Enzyme activities in the culture media were assessed and expressed as percentage of the total activity present in the cultured hepatocytes at the beginning of the treatments.
The lowest cytotoxic concentration (LCC) and the no effect concentration (NoEC) are given for each compound, based on cell morphology and LDH leakage after 24 h treatment. LCC is defined as the lowest concentration of the test compound leading to a clear effect on the cultured rat hepatocytes (morphology grading≧2 or ≧2-fold increase in LDH leakage). A LCC value of >300 μM indicates the absence of effect on both endpoints at the highest test concentration of 300 μM. […] NoEC is defined as the highest test concentration of the compound which was without an effect on the cultured rat hepatocytes (morphology and LDH leakage).

[2] = target: T1, hCRTH2 receptor (Homo sapiens, UniProt Q9Y5Y4); experiment: hCRTH2 receptor membranes radioligand displacement assay; settings: displacement of 3H-PGD2 (2.5 nM), HEK293-hCRTH2 membrane fragments, Binding-Buffer with 0.1% BSA
T1 construct: expressed in transfected cells; host or cells: HEK293 (recombinant HEK293-hCRTH2), membrane fragments
T1 sequence (Q9Y5Y4 1-395): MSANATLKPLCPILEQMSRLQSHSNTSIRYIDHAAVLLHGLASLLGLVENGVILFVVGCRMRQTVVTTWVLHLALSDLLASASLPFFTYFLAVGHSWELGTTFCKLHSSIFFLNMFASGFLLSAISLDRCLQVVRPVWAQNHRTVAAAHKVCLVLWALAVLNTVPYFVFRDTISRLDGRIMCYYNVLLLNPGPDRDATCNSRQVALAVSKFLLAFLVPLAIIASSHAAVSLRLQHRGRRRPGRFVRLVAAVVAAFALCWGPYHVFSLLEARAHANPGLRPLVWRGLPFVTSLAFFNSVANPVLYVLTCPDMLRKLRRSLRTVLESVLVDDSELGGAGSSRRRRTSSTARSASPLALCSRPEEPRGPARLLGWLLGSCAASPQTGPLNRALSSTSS
Description: Preparation of hCRTH2 Receptor Membranes and Radioligand Displacement Assay:
(§1) First, recombinant HEK293-hCRTH2 cells were detached from culture plates into 5 ml buffer A/plate (Buffer A: 5 mM Tris, 1 mM MgCl2-6H2O pH=7.4) using a rubber policeman. Cells were then transferred into centrifugation tubes and centrifuged for 5 min at 400 g. The cell pellet was resuspended in the same buffer and tubes were frozen at 80° C. Cells were thawed and membrane fragments were generated by homogenization using a polytron homogenizer (30 seconds). The membrane fragments were then centrifuged at 3000 g for 20 minutes and resuspended in buffer C (Buffer C: 75 mM Tris, 25 mM MgCl2, 250 mM Saccharose pH 7.4). Aliquots of membrane fragments were stored at −20° C.
(§2) Binding assay was performed in a final assay volume of 250 μl. First, 25 μl of test compound, previously diluted in Binding-Buffer (Binding-Buffer: 50 mM Tris-Base, 100 mM NaCl, 1 mM EDTA, 0.1% BSA (protease free), 0.01% NaN3, 10 mM MnCl2 pH 7.0) was placed into each well. After addition of 75 μl Binding-Buffer, 50 μl of the radioligand ^3H-PGD2 (at 2.5 nM (220.000 dpm/well) from ANAWA ART0662) was added to each well. Binding assay was started by addition of 100 μl CRTH2 membrane fragments, reaching a final concentration of 20 μg/well. For non-specific binding, PGD2 was added to the reaction mixture to […] final concentration. This assay mix was incubated for 90 minutes at room temperature and then filtered through a GF/C filter 96-well plate which was pre-soaked for 3 hours in 0.5% polyethyleneimine (PEI). The filter-wells were washed three times with ice cold Binding-Buffer. Then, 40 μl of Microscint-40 (Packard) was added to each well and the retained radioactivity quantified in a Topcount (Packard).

[3] = target: T1, hCRTH2 receptor; experiment: Radioligand displacement assay in presence of human serum albumin (HSA); settings: displacement of 3H-PGD2, Binding-Buffer with 0.5% human serum albumin instead of 0.1% BSA
Description: as §1, §2
Radioligand Displacement Assay-Human Serum Albumin (HSA):
Radioligand displacement assay in presence of human serum albumin (HSA) was performed as described above, with following modifications. Binding-Buffer-HSA: Binding-buffer+0.5% Sigma Albumin from Human serum A1887 (instead of 0.1% BSA). A volume of 25 μl test compound, previously diluted in Binding-Buffer-HSA was placed into each well. After addition of 75 μl Binding-Buffer-HSA, 50 μl of ^3H-PGD2 (at 2.5 nM (220.000 dpm/well) from ANAWA ART0662) was added to each well. Remaining protocol was identical as described above.

[4] = tested on: eosinophils (PGD2-induced shape change); experiment: Eosinophil shape change assay with human plasma; assay type: cell-based; settings: human polymorphonuclear cells, 50% human plasma, activated with PGD2 100 nM, flow cytometry forward-scatter
Description: Eosinophil Shape Change Assay with Human Plasma
After obtaining informed consent, blood samples were drawn by venipuncture according to the protocol approved by the ethics committee of Basel, Switzerland. Polymorphonuclear leukocytes (containing eosinophils, basophils and neutrophils) were isolated using the Polymorphprep™ method (Axis-Shield). In brief, anticoagulated whole blood was layered onto a Polymorphprep gradient (density 1.113 g/ml) and centrifuged at 500 g for 30 min. The polymorphonuclear cell fraction was harvested and depleted for erythrocytes by hypotonic saline lysis.
The polymorphonuclear cells were resuspended in assay buffer (1×PBS with Ca^2+/Mg^2+ supplemented with 0.1% BSA, 10 mM HEPES, and 10 mM Glucose, pH 7.4) at 5×10^6 cells/ml and stained with anti-CD49d-APC ((APC=Allophycocyanin) for 1 hour at RT. Test compounds, at various concentrations, were preincubated 10 min in human plasma (anticoagulated with a thrombin inhibitor). Then, human plasma was added to the polymorphonuclear cells to 50% of final assay volume with polymorphonuclear cells at 4×10^6 cells/ml. After incubation for 10 minutes at 37° C., the polymorphonuclear cells were activated for 5 min at 37° C. by addition of PGD2 at 100 nM final concentration. Activation was stopped by addition of 0.5 ml paraformaldehyde (1%).
Immediately after fixation with paraformaldehyde, the samples were analyzed by FACSCanto flow cytometer (BD Biosciences) and target cells were identified by their forward-scatter (FSC) and side-scatter (SSC) characteristics. Eosinophils were identified by the anti-CD49d-APC signal and their characteristic side-scatter (SSC) profile. Shape change responses, indicative of eosinophil activation, were quantified as the percent of cells with an increased forward-scatter.

In the case of CN(c1ncc(Cl)cn1)[C@H]1CCc2c(c3cc(F)ccc3n2CC(=O)O)C1, the “NoEC (no effect concentration)” value [1] is reported as 30 µM and the “LCC (lowest cytotoxic concentration)” value [1] is reported as 300 µM.

Cc1ccc2c(n1)c1c(n2CC(=O)O)CCC(N(C)c2ncc(Cl)cn2)C1 (stereo not drawn) [Example 1, 2-(8-((5-chloropyrimidin-2-yl)(methyl)amino)-2-methyl-6,7,8,9-tetrahydro-5H-pyrido[3,2-b]indol-5-yl)acetic acid] was tested, and the IC50 [2] was 1.9 nM, the IC50 [3] was 3.9 nM and the IC50 [4] was 71 nM.

CN(c1ncc(Cl)cn1)C1CCc2c(c3nc(F)ccc3n2CC(=O)O)C1 (stereo not drawn) [Example 2, 2-(8-((5-chloropyrimidin-2-yl)(methyl)amino)-2-fluoro-6,7,8,9-tetrahydro-5H-pyrido[3,2-b]indol-5-yl)acetic acid] gave an IC50 [2] of 3.1 nM, an IC50 [3] of 2.3 nM and an IC50 [4] of 4.2 nM.

COc1ccc2c(n1)c1c(n2CC(=O)O)CCC(N(C)c2ncc(Cl)cn2)C1 (stereo not drawn) [Example 3, 2-(8-((5-chloropyrimidin-2-yl)(methyl)amino)-2-methoxy-6,7,8,9-tetrahydro-5H-pyrido[3,2-b]indol-5-yl)acetic acid] showed an IC50 [2] of 13 nM, an IC50 [3] of 13 nM and an IC50 [4] of 148 nM.

CN(c1ncc(Cl)cn1)C1CCc2c(c3nc(C(F)(F)F)ccc3n2CC(=O)O)C1 (stereo not drawn) [Example 4, 2-(8-((5-chloropyrimidin-2-yl)(methyl)amino)-2-(trifluoromethyl)-6,7,8,9-tetrahydro-5H-pyrido[3,2-b]indol-5-yl)acetic acid] was tested, and the IC50 [2] was 10 nM, the IC50 [3] was 16 nM and the IC50 [4] was 417 nM.

O=C(O)Cn1c2c(c3ncccc31)CC(Nc1ncc(Cl)cn1)CC2 (stereo not drawn) [Example 5, 2-(8-((5-chloropyrimidin-2-yl)-amino)-6,7,8,9-tetrahydro-5H-pyrido[3,2-b]indol-5-yl)acetic acid] showed an IC50 [2] of 19 nM, an IC50 [3] of 22 nM and an IC50 [4] of 88 nM.

Compound CN(c1ncc(Cl)cn1)[C@H]1CCc2c(c3ncccc3n2CC(=O)O)C1 [Example 6, (S)-2-(8-((5-chloropyrimidin-2-yl)(methyl)amino)-6,7,8,9-tetrahydro-5H-pyrido[3,2-b]indol-5-yl)acetic acid] has an IC50 [2] of 2.3 nM, an IC50 [3] of 2.1 nM and an IC50 [4] of 5.8 nM.

CN(c1ncc(Cl)cn1)[C@H]1CCc2c(c3nc(F)ccc3n2CC(=O)O)C1 [Example 7, (S)-2-(8-((5-chloropyrimidin-2-yl)(methyl)amino)-2-fluoro-6,7,8,9-tetrahydro-5H-pyrido[3,2-b]indol-5-yl)acetic acid] was tested, and the IC50 [2] was 5.6 nM, the IC50 [3] was 5 nM and the IC50 [4] was 3.1 nM.

With Cc1ccc2c(n1)c1c(n2CC(=O)O)CCC(N(C)c2ncc(Cl)cn2)C1 (stereo not drawn) [drawing 27] the “NoEC (no effect concentration)” value [1] was >300 µM and the “LCC (lowest cytotoxic concentration)” value [1] was >300 µM.

In the case of CN(c1ncc(Cl)cn1)C1CCc2c(c3nc(F)ccc3n2CC(=O)O)C1 (stereo not drawn) [drawing 28], the “NoEC (no effect concentration)” value [1] is reported as >300 µM and the “LCC (lowest cytotoxic concentration)” value [1] is reported as >300 µM.

COc1ccc2c(n1)c1c(n2CC(=O)O)CCC(N(C)c2ncc(Cl)cn2)C1 (stereo not drawn) [drawing 29] was tested, and the “NoEC (no effect concentration)” value [1] was 100 µM and the “LCC (lowest cytotoxic concentration)” value [1] was 300 s.

In the case of CN(c1ncc(Cl)cn1)C1CCc2c(c3nc(C(F)(F)F)ccc3n2CC(=O)O)C1 (stereo not drawn) [drawing 30], the “NoEC (no effect concentration)” value [1] is reported as 100 µM and the “LCC (lowest cytotoxic concentration)” value [1] is reported as 300 s.

For CN(c1ncc(Cl)cn1)[C@H]1CCc2c(c3ncccc3n2CC(=O)O)C1 [drawing 31], the “NoEC (no effect concentration)” value [1] was >300 µM and the “LCC (lowest cytotoxic concentration)” value [1] was >300 µM.

With CN(c1ncc(Cl)cn1)[C@H]1CCc2c(c3ncccc3n2CC(=O)O)C1 [drawing 32] the “NoEC (no effect concentration)” value [1] was 30 µM and the “LCC (lowest cytotoxic concentration)” value [1] was 300 µM.

With CN(c1ncc(Cl)cn1)[C@H]1CCc2c(c3nc(F)ccc3n2CC(=O)O)C1 [drawing 33] the “NoEC (no effect concentration)” value [1] was >300 µM and the “LCC (lowest cytotoxic concentration)” value [1] was >300 µM.

With O=C(O)Cn1c2c(c3nc(F)ccc31)C[C@@H](Nc1ncc(Cl)cn1)CC2 [drawing 35] the “NoEC (no effect concentration)” value [1] was >300 µM and the “LCC (lowest cytotoxic concentration)” value [1] was >300 µM.
